Legend:
PP1 [1] = molecular target: T1, PP1 (Oryctolagus cuniculus, UniProt P62139); settings: literature values; cited from earlier work
PP1 [2] = molecular target: T1, PP1; experiment: Malachite green assay, IC50 determination, PP1; assay type: biochemical; settings: for PP1 versus PP2A preference (in words): based on IC50 values; for IC50 PP1: malachite green assay, phosphopeptide K-R-pT-I-R-R 40 μM, 30 °C, three trials
PP2A = PP2A (Homo sapiens, UniProt P67775); experiment: Malachite green assay, IC50 determination, PP2A; assay type: biochemical
PP2A, sequence (P67775 whole entry): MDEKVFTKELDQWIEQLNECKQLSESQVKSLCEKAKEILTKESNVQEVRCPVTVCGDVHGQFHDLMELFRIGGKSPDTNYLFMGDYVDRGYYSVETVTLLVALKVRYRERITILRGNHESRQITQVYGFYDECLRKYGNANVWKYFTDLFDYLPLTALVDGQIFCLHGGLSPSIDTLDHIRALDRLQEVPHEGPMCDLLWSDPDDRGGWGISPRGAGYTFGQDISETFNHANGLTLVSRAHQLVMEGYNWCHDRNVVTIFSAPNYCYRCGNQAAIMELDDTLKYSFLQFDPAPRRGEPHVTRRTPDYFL

T1 sequence (P62139 whole entry): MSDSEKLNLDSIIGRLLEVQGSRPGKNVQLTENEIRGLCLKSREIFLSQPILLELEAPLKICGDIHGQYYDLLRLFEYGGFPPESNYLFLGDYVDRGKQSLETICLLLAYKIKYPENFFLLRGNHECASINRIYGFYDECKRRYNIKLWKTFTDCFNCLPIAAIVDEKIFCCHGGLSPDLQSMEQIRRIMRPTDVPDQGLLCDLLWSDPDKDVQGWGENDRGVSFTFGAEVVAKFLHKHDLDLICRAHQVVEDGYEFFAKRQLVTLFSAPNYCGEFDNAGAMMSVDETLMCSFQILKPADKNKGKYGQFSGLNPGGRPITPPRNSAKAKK

Row | SMILES | Selectivity for PP1 over PP2A (PP1 [1]) | IC50 (PP1 [2]) [nM] | PP1 versus PP2A preference (in words) (PP1 [2]) | IC50 PP1 (PP1 [2]) | IC50 (PP2A) [nM]
1 | CO[C@H]([C@H](O)CC(=O)[C@@H](C)[C@@H](O)CC[C@@H](C)[C@@H]1O[C@]2(CC[C@@H](C)[C@H](CC[C@H](C)C(C)=O)O2)CC[C@@H]1C)[C@H](OC(=O)C[C@@H](O)C1=C(C)C(=O)OC1=O)C(C)C [TTM, tautomycin] | approximately 5 fold |  |  |  | 
2 | CC1=C([C@H](O)CC(=O)O[C@H](C)[C@@H](C)[C@H](O)CC(=O)[C@@H](C)[C@@H](O)CCCCCOC(=O)c2ccccc2)C(=O)OC1=O [1d, (6S,7S,10R,11S,12R)-6,10-dihydroxy-12-(((R)-3-hydroxy-3-(4-methyl-2,5-dioxo-2,5-dihydrofuran-3-yl)propanoyl)oxy)-7,11-dimethyl-8-oxotridecyl benzoate] |  | 34 ± 2 | PP1 selective | nanomolar range | 260
3 | CC1=C([C@H](O)CC(=O)O[C@H](C)[C@@H](C)[C@H](O)CC(=O)[C@@H](C)[C@@H](O)CCCCCOC(=O)c2ccc(-c3ccccc3)cc2)C(=O)OC1=O [1e, (6S,7S,10R,11S,12R)-6,10-dihydroxy-12-(((R)-3-hydroxy-3-(4-methyl-2,5-dioxo-2,5-dihydrofuran-3-yl)propanoyl)oxy)-7,11-dimethyl-8-oxotridecyl [1,1’-biphenyl]-4-carboxylate] |  | 1500 ± 150 | PP1 selective | nanomolar range | 6800
4 | C=C/C(=C/C(=O)C[C@H](C)C[C@@H](C)CC[C@H](O)[C@H](C)C(=O)C[C@@H](O)[C@H](C)[C@@H](C)OC(=O)C[C@@H](O)C1=C(C)C(=O)OC1=O)CC [TTN, tautomycetin, reference compound] | ~140 fold | 11 ± 1 |  |  | 490
